Laboratory results: paper PMC11971462, “Generation and validation of a novel multitarget small molecule in glioblastoma” (Cell Death & Disease, 2025)

Test system: GNS166 cells
Experiment: Label-free proteomics differential expression
Type: cell-based, human
Experimental: Proteomic studies were performed by the Proteomics Facility of the CIC bioGUNE by label-free relative quantification on nLC MS/MS. […] In both approaches, the top 20 enriched terms were plotted and the pathways were clustered using divisive hierarchical clustering based on pairwise Jaccard distances.

`C#CCN(Cc1cc2cc(OCCCN3CCCCC3)ccc2n1S(=O)(=O)c1ccccc1)C(=O)CCCCCCC(=O)NO` [DDI] was tested, and the “Direction ANR52_HUMAN” value (protein Q8NB46) was “Down”, the “LogFC ANR52_HUMAN” value (protein Q8NB46) was -3.184 and the “Direction TTC13_HUMAN” value (protein Q8NBP0) was “Down”. The “LogFC TTC13_HUMAN” value (protein Q8NBP0) was -1.381, the “LogFC KMT2C_HUMAN” value (protein Q8NEZ4 GN=KMT2C) was 0.407 and the “LogFC PLBL2_HUMAN” value (protein Q8NHP8 GN=PLBD2) was 1.378. For the same molecule, the “LogFC NEDD1_HUMAN” value (protein Q8NHV4 GN=NEDD1) was 0.5958, the “LogFC SMRC2_HUMAN” value (protein Q8TAQ2 GN=SMARCC2) was -0.7509 and the “LogFC CX038_HUMAN” value (protein Q8TB03 GN=CXorf38) was 1.347. The “LogFC GDAP1_HUMAN” value (protein Q8TB36 GN=GDAP1) was 1.874, the “Direction CIP2A_HUMAN” value (protein Q8TCG1) was “Down” and the “LogFC CIP2A_HUMAN” value (protein Q8TCG1) was -1.2095. For the same molecule, the “LogFC DDX54_HUMAN” value (protein Q8TDD1 GN=DDX54) was -1.067, the “Direction DTD1_HUMAN” value (protein Q8TEA8) was “Down” and the “LogFC DTD1_HUMAN” value (protein Q8TEA8) was -0.5287. For the same molecule, the “LogFC PPIL4_HUMAN” value (protein Q8WUA2 GN=PPIL4) was -1.325, the “Direction LMBR1_HUMAN” value (protein Q8WVP7) was “Down” and the “LogFC LMBR1_HUMAN” value (protein Q8WVP7) was -0.9571. For the same molecule, the “LogFC FACR1_HUMAN” value (protein Q8WVX9 GN=FAR1) was 0.64, the “LogFC UBCP1_HUMAN” value (protein Q8WVY7 GN=UBLCP1) was 1.245 and the “Direction ATX2L_HUMAN” value (protein Q8WWM7) was “Down”. The “LogFC ATX2L_HUMAN” value (protein Q8WWM7) was -0.7543, the “Direction PHIP_HUMAN” value (protein Q8WWQ0) was “Down” and the “LogFC PHIP_HUMAN” value (protein Q8WWQ0) was -2.692. For the same molecule, the “Direction NELFB_HUMAN” value (protein Q8WX92) was “Down”, the “LogFC NELFB_HUMAN” value (protein Q8WX92) was -0.7153 and the “Direction ATLA1_HUMAN” value (protein Q8WXF7) was “Down”. For the same molecule, the “LogFC ATLA1_HUMAN” value (protein Q8WXF7) was -1.239, the “Direction CND3_HUMAN” value (protein Q9BPX3) was “Down” and the “LogFC CND3_HUMAN” value (protein Q9BPX3) was -1.5744. For the same molecule, the “Direction FSP1_HUMAN” value (protein Q9BRQ8) was “Down”, the “LogFC FSP1_HUMAN” value (protein Q9BRQ8) was -0.8531 and the “Direction GCP2_HUMAN” value (protein Q9BSJ2) was “Down”. For the same molecule, the “LogFC GCP2_HUMAN” value (protein Q9BSJ2) was -1.427, the “LogFC P4K2A_HUMAN” value (protein Q9BTU6 GN=PI4K2A) was 1.541 and the “LogFC TMM43_HUMAN” value (protein Q9BTV4 GN=TMEM43) was -0.7287. The “LogFC MKNK1_HUMAN” value (protein Q9BUB5 GN=MKNK1) was 1.242, the “LogFC TBB2B_HUMAN” value (protein Q9BVA1 GN=TUBB2B) was 1.2351 and the “Direction PBDC1_HUMAN” value (protein Q9BVG4) was “Down”. The “LogFC PBDC1_HUMAN” value (protein Q9BVG4) was -0.9108, the “Direction KIFC1_HUMAN” value (protein Q9BW19) was “Down” and the “LogFC KIFC1_HUMAN” value (protein Q9BW19) was -4.377. The “Direction NADAP_HUMAN” value (protein Q9BWU0) was “Down”, the “LogFC NADAP_HUMAN” value (protein Q9BWU0) was -0.9102 and the “Direction LS14B_HUMAN” value (protein Q9BX40) was “Down”. For the same molecule, the “LogFC LS14B_HUMAN” value (protein Q9BX40) was -1.3017, the “Direction NUSAP_HUMAN” value (protein Q9BXS6) was “Down” and the “LogFC NUSAP_HUMAN” value (protein Q9BXS6) was -2.873. For the same molecule, the “Direction EIF2A_HUMAN” value (protein Q9BY44) was “Down”, the “LogFC EIF2A_HUMAN” value (protein Q9BY44) was -0.2917 and the “LogFC PDIP3_HUMAN” value (protein Q9BY77 GN=POLDIP3) was -0.8716. The “LogFC GNB1L_HUMAN” value (protein Q9BYB4 GN=GNB1L) was 2.567, the “LogFC PAR6B_HUMAN” value (protein Q9BYG5 GN=PARD6B) was 1.231 and the “LogFC ARL6_HUMAN” value (protein Q9H0F7 GN=ARL6) was 2.762. The “Direction RGAP1_HUMAN” value (protein Q9H0H5) was “Down”, the “LogFC RGAP1_HUMAN” value (protein Q9H0H5) was -3.033 and the “Direction SMG9_HUMAN” value (protein Q9H0W8) was “Down”. For the same molecule, the “LogFC SMG9_HUMAN” value (protein Q9H0W8) was -1.751, the “Direction YTDC2_HUMAN” value (protein Q9H6S0) was “Down” and the “LogFC YTDC2_HUMAN” value (protein Q9H6S0) was -1.289. For the same molecule, the “LogFC ANKZ1_HUMAN” value (protein Q9H8Y5 GN=ANKZF1) was 2.2814, the “LogFC EHMT1_HUMAN” value (protein Q9H9B1 GN=EHMT1) was -1.629 and the “Direction EHD4_HUMAN” value (protein Q9H223) was “Down”. The “LogFC EHD4_HUMAN” value (protein Q9H223) was -0.4023, the “LogFC FN3K_HUMAN” value (protein Q9H479 GN=FN3K) was -1.71 and the “Direction HEAT1_HUMAN” value (protein Q9H583) was “Down”. The “LogFC HEAT1_HUMAN” value (protein Q9H583) was -0.4862, the “Direction PHAX_HUMAN” value (protein Q9H814) was “Down” and the “LogFC PHAX_HUMAN” value (protein Q9H814) was -0.7063. For the same molecule, the “LogFC NT5D2_HUMAN” value (protein Q9H857 GN=NT5DC2) was 0.9697, the “Direction ZWILC_HUMAN” value (protein Q9H900) was “Down” and the “LogFC ZWILC_HUMAN” value (protein Q9H900) was -1.417. For the same molecule, the “LogFC QTRT2_HUMAN” value (protein Q9H974 GN=QTRT2) was -0.9473, the “LogFC WDR54_HUMAN” value (protein Q9H977 GN=WDR54) was 2.021 and the “LogFC ARMT1_HUMAN” value (protein Q9H993 GN=ARMT1) was 1.113. For the same molecule, the “LogFC KT3K_HUMAN” value (protein Q9HA64 GN=FN3KRP) was 0.7505, the “Direction TM165_HUMAN” value (protein Q9HC07) was “Down” and the “LogFC TM165_HUMAN” value (protein Q9HC07) was -0.8409. For the same molecule, the “Direction CWC22_HUMAN” value (protein Q9HCG8) was “Down”, the “LogFC CWC22_HUMAN” value (protein Q9HCG8) was -0.5601 and the “LogFC VAT1L_HUMAN” value (protein Q9HCJ6 GN=VAT1L) was 1.2681. The “Direction RM47_HUMAN” value (protein Q9HD33) was “Down”, the “LogFC RM47_HUMAN” value (protein Q9HD33) was -0.8741 and the “Direction TM9S3_HUMAN” value (protein Q9HD45) was “Down”. The “LogFC TM9S3_HUMAN” value (protein Q9HD45) was -0.5879, the “Direction HM20A_HUMAN” value (protein Q9NP66) was “Down” and the “LogFC HM20A_HUMAN” value (protein Q9NP66) was -1.261. For the same molecule, the “LogFC TNR12_HUMAN” value (protein Q9NP84 GN=TNFRSF12A) was -2.0106, the “Direction LUC7L_HUMAN” value (protein Q9NQ29) was “Down” and the “LogFC LUC7L_HUMAN” value (protein Q9NQ29) was -0.6796. For the same molecule, the “Direction SSF1_HUMAN” value (protein Q9NQ55) was “Down”, the “LogFC SSF1_HUMAN” value (protein Q9NQ55) was -1.815 and the “LogFC CL004_HUMAN” value (protein Q9NQ89 GN=C12orf4) was 1.057. For the same molecule, the “LogFC ITM2C_HUMAN” value (protein Q9NQX7 GN=ITM2C) was 1.931, the “LogFC DBLOH_HUMAN” value (protein Q9NR28 GN=DIABLO) was 1.0021 and the “LogFC DDX21_HUMAN” value (protein Q9NR30 GN=DDX21) was -1.5607. For the same molecule, the “LogFC HEBP1_HUMAN” value (protein Q9NRV9 GN=HEBP1) was 1.384, the “Direction ABC3C_HUMAN” value (protein Q9NRW3) was “Down” and the “LogFC ABC3C_HUMAN” value (protein Q9NRW3) was -0.8611. The “Direction LANC2_HUMAN” value (protein Q9NS86) was “Down”, the “LogFC LANC2_HUMAN” value (protein Q9NS86) was -1.981 and the “LogFC HOME3_HUMAN” value (protein Q9NSC5 GN=HOMER3) was 1.625. For the same molecule, the “Direction F207A_HUMAN” value (protein Q9NSI2) was “Down”, the “LogFC F207A_HUMAN” value (protein Q9NSI2) was -1.761 and the “LogFC DIAP3_HUMAN” value (protein Q9NSV4 GN=DIAPH3) was -2.473. For the same molecule, the “Direction SMC4_HUMAN” value (protein Q9NTJ3) was “Down”, the “LogFC SMC4_HUMAN” value (protein Q9NTJ3) was -1.4105 and the “Direction TYDP1_HUMAN” value (protein Q9NUW8) was “Down”. For the same molecule, the “LogFC TYDP1_HUMAN” value (protein Q9NUW8) was -1.1128, the “Direction FANCI_HUMAN” value (protein Q9NVI1) was “Down” and the “LogFC FANCI_HUMAN” value (protein Q9NVI1) was -3.564. The “Direction EVA1B_HUMAN” value (protein Q9NVM1) was “Down”, the “LogFC EVA1B_HUMAN” value (protein Q9NVM1) was -3.511 and the “Direction THG1_HUMAN” value (protein Q9NWX6) was “Down”.
